In ChEMBL document CHEMBL1201862, “PubChem BioAssay data set” (2004):
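Where inhibition never reached the appropriate level, the endpoint shown equals the highest concentration tested. Otherwise, values were interpolated linearly from a five-concentration, 48-hour dose response in 96-well plates. At the GI50, growth is halved.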 The source made the active and inactive calls. No stated cut-off is given here; in the data, active = GI50 up to about 1.1 µM and inactive = higher. Where a SMILES comes first, the peptide text is derived from it. [ ]: non-standard residue; d: D form. The star is where a group is joined. Bn2Val = CC(C)[C@@H](C(=O)*)N(Cc1ccccc1)Cc1ccccc1; NH(3,4-diMeO-benzyl) = COc1ccc(CN*)cc1OC; NMeV = CN[C@H](C(=O)O)C(C)C

Assays:
Assay in all cases: NCI tumour cell line growth inhibition, 48 h
[1] = tested on: A549
[2] = tested on: BT-549
[3] = tested on: HCC 2998
[4] = tested on: MDA-MB-435
[5] = tested on: MDA-N
[6] = tested on: MOLT-4
[7] = tested on: NCI-H23
[8] = tested on: NCI-H460
[9] = tested on: NCI-H522
[10] = tested on: NCI/ADR-RES
[11] = tested on: OVCAR-4
[12] = tested on: OVCAR-5
[13] = tested on: SF-539
[14] = tested on: SN12C
[15] = tested on: SNB-75
[16] = tested on: T47D
[17] = tested on: TK-10
[18] = tested on: HL-60
[19] = tested on: M14
[20] = tested on: Malme-3M

Measured: GI50

C=C(CO)[C@H]1CC/C(C)=C/CC/C(C)=C/C/C=C(\C)[C@H](O)C1
inactive: [1] 42 µM | [2] 23.1 µM | [3] 15.2 µM | [4] 18.6 µM | [5] 34.5 µM | [6] 18.3 µM | [7] 29.2 µM | [8] 22.1 µM | [9] 16.9 µM | [10] 27.3 µM | [11] 46.7 µM | [12] 47.1 µM | [13] 23.5 µM | [14] 33.3 µM | [15] 31 µM | [16] 48 µM | [17] 20.6 µM

COc1ccc(CNC(=O)[C@@H]2CCCN2C(=O)[C@@H]2CCCN2C(=O)[C@H](C(C)C)N(C)C(=O)[C@@H](NC(=O)[C@H](C(C)C)N(Cc2ccccc2)Cc2ccccc2)C(C)C)cc1OC (Bn2Val-V[NMeV]PP-{NH(3,4-diMeO-benzyl)})
inactive: [1] 11.7 µM | [2] 14.7 µM | [18] 3.15 µM | [19] 14.6 µM | [4] 12 µM | [5] 14.7 µM | [6] 4.39 µM | [20] 25.2 µM | [7] 18.9 µM | [8] 13.5 µM | [9] 8.85 µM | [10] 18.3 µM | [11] 18 µM | [12] 18.5 µM | [13] 17.1 µM | [14] 15 µM | [15] 10.3 µM | [16] 12.6 µM | [17] 14 µM

COc1cc(S(=O)(=O)Nc2ccc(-c3csc(N)n3)cc2)ccc1Cl
inactive: [1] 18.4 µM | [2] 22.3 µM | [18] 15 µM | [19] 18.6 µM | [4] 20.8 µM | [5] 19.4 µM | [6] 11.1 µM | [20] 16.6 µM | [7] 21.2 µM | [9] 17.9 µM | [10] 33.9 µM | [11] 14.1 µM | [12] 23.3 µM | [13] 47.6 µM | [14] 18.3 µM | [15] 21.4 µM | [16] 7.87 µM

Cc1ccc(Cc2cc(N3CCN(c4cccc(Cl)c4)CC3)nnc2C)cc1
inactive: [1] 43 µM | [2] > 100 µM | [19] > 100 µM | [4] 27.7 µM | [5] 16.4 µM | [7] 37.7 µM | [8] 20.7 µM | [9] 18.7 µM | [10] 43.3 µM | [11] > 100 µM | [12] > 100 µM | [13] 38.1 µM | [14] 56.4 µM | [15] 50.4 µM | [16] 24.3 µM | [17] > 100 µM

Cn1nc2ccc([N+](=O)[O-])c(Cn3nnc4ccccc43)c2n1
inactive: [1] > 100 µM | [2] > 100 µM | [3] > 100 µM | [18] > 100 µM | [19] > 100 µM | [4] 90.8 µM | [5] 88.3 µM | [6] > 100 µM | [20] > 100 µM | [7] > 100 µM | [8] > 100 µM | [10] 71 µM | [11] > 100 µM | [12] > 100 µM | [13] > 100 µM | [14] > 100 µM | [15] 70.3 µM | [16] > 100 µM | [17] > 100 µM

COc1ccc(NC(=S)Nc2cc(C)cc(C)n2)cc1
inactive: [1] > 100 µM | [2] > 100 µM | [18] > 100 µM | [19] > 100 µM | [4] > 100 µM | [5] > 100 µM | [6] > 100 µM | [20] > 100 µM | [8] > 100 µM | [9] > 100 µM | [10] > 100 µM | [11] > 100 µM | [12] > 100 µM | [13] > 100 µM | [14] > 100 µM | [15] > 100 µM | [16] > 100 µM | [17] > 100 µM

O=C(O)C1CCc2ccc3ccccc3c2C1c1cccc2ccccc12 (centres undefined)
inactive: [1] 16.5 µM | [2] 19.1 µM | [18] 26.6 µM | [19] 17.6 µM | [4] 48.6 µM | [5] 22.1 µM | [6] 19.8 µM | [20] 22.4 µM | [8] 20 µM | [9] 21.4 µM | [10] 23.3 µM | [11] 29 µM | [12] 18.4 µM | [13] 23.8 µM | [14] 24.2 µM | [15] 22.9 µM | [16] 43.9 µM | [17] 44.5 µM

C/C(CC(O)(C(F)(F)Cl)C(F)(F)Cl)=N\Nc1ccccc1
inactive: [1] 37.2 µM | [2] 33.6 µM | [18] 22.5 µM | [19] 29.4 µM | [4] 31.9 µM | [5] 43.6 µM | [6] 23.4 µM | [20] 32.4 µM | [7] 19.3 µM | [8] 29.7 µM | [9] 28.5 µM | [10] 24.8 µM | [11] 63.7 µM | [12] > 100 µM | [13] 32.3 µM | [15] 28.9 µM | [16] 28.2 µM | [17] 38.4 µM

CCOC(=O)C12CCC(=O)N1N(C)c1ncccc1N2 (centres undefined)
inactive: [1] > 100 µM | [2] > 100 µM | [3] 77.4 µM | [19] > 100 µM | [4] > 100 µM | [5] > 100 µM | [6] > 100 µM | [7] > 100 µM | [8] > 100 µM | [9] > 100 µM | [10] > 100 µM | [11] > 100 µM | [12] > 100 µM | [13] > 100 µM | [15] 67.1 µM | [16] > 100 µM | [17] > 100 µM

COc1ccc(C2C3COc4ccccc4C3=NN2c2ccccc2)cc1 (centres undefined)
inactive: [1] > 100 µM | [2] > 100 µM | [19] > 100 µM | [4] 62.4 µM | [5] > 100 µM | [6] 92.5 µM | [20] > 100 µM | [7] > 100 µM | [8] 94.4 µM | [9] > 100 µM | [10] > 100 µM | [11] > 100 µM | [12] > 100 µM | [13] > 100 µM | [15] > 100 µM | [16] 48.8 µM | [17] > 100 µM

CN(C)/C=N/[C@@H](C(=O)O)c1ccccc1
inactive: [1] > 100 µM | [2] > 100 µM | [3] > 100 µM | [18] > 100 µM | [19] > 100 µM | [4] > 100 µM | [5] > 100 µM | [6] > 100 µM | [20] > 100 µM | [7] > 100 µM | [8] > 100 µM | [10] > 100 µM | [11] > 100 µM | [12] > 100 µM | [14] > 100 µM | [15] > 100 µM | [16] > 100 µM | [17] > 100 µM
